Source: patent US20260240839A1, “Pharmaceutical composition of tetramethylpyrazine nitrone for injection and a method for manufacture thereof” (GUANGZHOU MAGPIE PHARMACEUTICALS CO., LTD., priority 2022, published 2026)

Test: Solution stability of tetramethylpyrazine nitrone in different solvents at 25° C.
Format: physicochemical
Settings: for Total impurities / Content: 25° C.
Procedure: Here, “NA” indicates not measured. “Total impurities” at 0 hour refer to that detected when API of tetramethylpyrazine nitrone is just prepared into a solution.
In 0.1 M HCl, the stability of tetramethylpyrazine nitrone compounds is low, and they begin to degrade as soon as they form a solution. After 3 hours, they completely degrade, and the total content of related substances reaches 100%.

- Total impurities (0.1M HCl, 0 h): 59.28%
- Content (0.1M HCl, 3 h): 0%
- Total impurities (0.1M HCl, 3 h): 100%
- Content (0.1M HCl, 24 h): 0%
- Total impurities (0.1M HCl, 24 h): 100%
- Total impurities (0.1M NaOH, 0 h): 17.78%
- Content (0.1M NaOH, 3 h): 81.8%
- Total impurities (0.1M NaOH, 3 h): 31.38%
- Content (0.1M NaOH, 24 h): 56.54%
- Total impurities (0.1M NaOH, 24 h): 49.23%
- Content (Pure water, 0 h): 100%
- Total impurities (Pure water, 0 h): 0.27%
- Content (Pure water, 3 h): 99.71%
- Total impurities (Pure water, 3 h): 0.39%
- Content (Pure water, 24 h): 98.54%
- Total impurities (Pure water, 24 h): 1.16%
- Stability in solution (buffer solutions ranging from pH 6.0 to pH 7.4 at 25° C.): relatively stable
- Total impurities (pH 4.5 Acetate buffer, 0 h): 8.36%
- Content (pH 4.5 Acetate buffer, 3 h): 83.64%
- Total impurities (pH 4.5 Acetate buffer, 3 h): 23.6%
- Content (pH 4.5 Acetate buffer, 24 h): 60.56%
- Total impurities (pH 4.5 Acetate buffer, 24 h): 44.44%
- Content (pH 6.0 phosphate buffer, 0 h): 100%
- Total impurities (pH 6.0 phosphate buffer, 0 h): 0.33%
- Content (pH 6.0 phosphate buffer, 3 h): 98.39%
- Total impurities (pH 6.0 phosphate buffer, 3 h): 0.44%
- Content (pH 6.0 phosphate buffer, 6 h): 98.65%
- Total impurities (pH 6.0 phosphate buffer, 6 h): 0.9%
- Content (pH 6.0 phosphate buffer, 24 h): 96.62%
- Total impurities (pH 6.0 phosphate buffer, 24 h): 2.19%
- Content (pH 6.4 Phosphate buffer, 0 h): 100%
- Total impurities (pH 6.4 Phosphate buffer, 0 h): 0.31%
- Content (pH 6.4 Phosphate buffer, 3 h): 98.85%
- Total impurities (pH 6.4 Phosphate buffer, 3 h): 0.4%
- Content (pH 6.4 Phosphate buffer, 24 h): 97.78%
- Total impurities (pH 6.4 Phosphate buffer, 24 h): 0.93%
- Content (pH 7.4 Phosphate buffer, 0 h): 100%
- Total impurities (pH 7.4 Phosphate buffer, 0 h): 0.47%
- Content (pH 7.4 Phosphate buffer, 3 h): 100.83%
- Total impurities (pH 7.4 Phosphate buffer, 3 h): 0.39%
- Content (pH 7.4 Phosphate buffer, 24 h): 99.92%
- Total impurities (pH 7.4 Phosphate buffer, 24 h): 1%
- Stability in solution (solutions with a pH lower than 6.0): low
SMILES: Cc1nc(C)c(/C=[N+](\[O-])C(C)(C)C)nc1C [tetramethylpyrazine nitrone]
